Legend:
[1] = system: surviving human skins treated by a human leukocyte elastase (ELH); assay: ex vivo protection of elastic fibres in human skin fragments kept surviving 10 days with ELH (Example 5); assay type: cell-based; conditions: 0.5 μg ELH per ml; 5 μl of 0.2% solution in ethanol every two days; 10 days at 37° C.; three donors; control 7.4%, ELH alone 5.1%
Method: (§1) The ex vivo activity of example 2 compound has been evaluated on surviving human skins treated by a human leukocyte elastase (ELH).
(§2) The test is performed the following way.
Fragments of normal human skin from three different donors are deposited in inserts positioned in culture wells. Culture medium added with antibiotics is added in the bottom of the wells. A pass is performed through slow diffusion between the two compartments via a porous membrane (pore size: 12 μm).
(§3) The culture medium is renewed every three days.
On the skin fragments, optionally 0.5 μg ELH per ml culture medium are added.
5 μl of the compound to be tested are also added every two days, previously put in solution at 0.2% by weight in ethanol.
The skins are kept surviving for 10 days at 37° C.
The elastic fibres are colored in blue using catechin (+) and quantified morphometrically using a computer assisted image analysis, The average derma surface percentage occupied by elastic fibres is evaluated this way.

[2] = system: surviving human skins treated by a human leukocyte elastase (ELH); assay: ex vivo protection of elastic fibres in fresh human skin cuts treated with ELH for 2 hours (Example 4); assay type: cell-based; conditions: 20° C.
Method: as §1, §2
Fresh human skin cuts from two different donors are treated for 2 hours, at 20° C., by 20 μl of a buffer solution (pH 7.4) optionally comprising 10 μg/ml ELH and optionally 0.1% of the compound to be tested, optionally previously put in solution in ethanol.
The elastic fibres are colored in blue using catechin (+) and quantified morphometrically using a computer assisted image analysis. The average derma surface percentage occupied by elastic fibres Is evaluated this way.

[3] = system: surviving human skins irradiated by UVA (8 J/cm^2); assay: protection of elastic fibres and collagen in surviving human skins irradiated by UVA (Example 6); assay type: cell-based; conditions: UVA 8 J/cm^2 once, 5 μl of 0.2% solution every two days, 7 days at 37° C.
Method: The activity of the example 2 compound has been evaluated on surviving human skins irradiated by UVA (8 J/cm^2).
as §2
Fragments of normal human skin from four different donors are deposited in inserts positioned in culture wells. Culture medium added with antibiotics is added in the bottom of the wells. A pass is performed through slow diffusion between the two compartments via a porous membrane (pore size: 12 μm).
as §3
On the skin fragments, every two days, 5 μl of the compound to be tested are added, previously put in solution at 0.2% wt in ethanol.
The skins are kept surviving for 7 days at 37° C.
The skins are radiated once at 8 J/cm^2 (RMX-3W Vilbert-Lourmat lamp).
The elastic fibres are colored in blue using catechin (+) and quantified morphometrically using a computer assisted image analysis. The average derma surface percentage occupied by elastic fibres is evaluated this way.

[4] = target: T1, human leukocyte elastase (ELH) (Homo sapiens, UniProt P08246); assay: in vitro anti-elastasic activity on Me-OSAAPV-p-NA substrate; assay type: biochemical; conditions: even in a small amount
T1 sequence (P08246 30-267): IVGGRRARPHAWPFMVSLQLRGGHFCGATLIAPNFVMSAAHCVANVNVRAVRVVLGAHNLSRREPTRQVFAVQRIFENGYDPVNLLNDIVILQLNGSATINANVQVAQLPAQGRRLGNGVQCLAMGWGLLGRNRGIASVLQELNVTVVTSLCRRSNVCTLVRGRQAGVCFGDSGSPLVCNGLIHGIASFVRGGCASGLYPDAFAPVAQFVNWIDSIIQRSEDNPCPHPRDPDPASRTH
Method: The anti-elastasic activity of compounds according to the invention is determined in vitro compared to the human leukocyte elastase (ELH).
The test is performed in the following way:
A Me-OSAAPV-p-NA (methyl-O-succinate alanine alanine proline valine-p-nitroaniline) substrate, onto which ELH (40 milli-units per ml) and 0.1% of the compound to be tested are applied, is left for incubating at 37° C. for 60 minutes.
Thereafter, the % inhibition of the control elastase activity is determined by spectrophotometry.

SMILES: CC(=O)N(c1cccc(C(F)(F)F)c1)C(C(=O)NCC(=O)O)C(C)C (stereo not drawn) [Example 2, {2-[acetyl-(3-trifluoromethyl-phenyl)-amino]-3-méthyl-butyrylamino}acetic acid]
- % Surface occupied by elastic fibres [1]: 7.1%
- % Surface occupied by elastic fibres ([2]; Skin 1, 10 μg/ml ELH + 0.1% compound, control 12.7%, ELH alone 4.85%): 13.95%
- % Surface occupied by elastic fibres ([2]; Skin 2, 10 μg/ml ELH + 0.1% compound, control 15.25%, ELH alone 6.85%): 11.85%
- Elastic fibres morphometric analysis (superficial derma) ([3]; untreated 6.75%, UVA alone 3.9%): 6.8%
- Collagen morphometric analysis (superficial derma) ([3]; untreated 87%, UVA alone 81%): 92%
- inhibition of the elastase activity (in words) [4]: strong inhibition

From patent US6998129B2, “Cosmetic or dermatological composition comprising an association between an elastase inhibitor compound of the N-acylaminoamide family and at least one anti-inflammatory compound” (L'Oreal, priority 2001, dated 2006)
